Experimental data published in PubChem BioAssay (NCI).
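48-hour exposure; five concentrations; linearly interpolated endpoints. The concentration for full growth arrest is given as TGI.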 Where a SMILES comes first, the peptide text is derived from it. The star is where a group is joined. Boc = CC(C)(C)OC(=O)*; Bn = c1ccc(C*)cc1

Columns and labels:
Test in all cases: NCI anticancer screen, dose series, 48 h
LOX IMVI melanoma = tested on: LOX IMVI melanoma
OVCAR-4 ovarian = tested on: OVCAR-4 ovarian
HOP-92 NSCLC = tested on: HOP-92 NSCLC
MALME-3M melanoma = tested on: MALME-3M melanoma
SNB-19 CNS = tested on: SNB-19 CNS
UO-31 renal = tested on: UO-31 renal
SN12C renal = tested on: SN12C renal
UACC-257 melanoma = tested on: UACC-257 melanoma
K-562 leukemia = tested on: K-562 leukemia
SF-268 CNS = tested on: SF-268 CNS
RPMI-8226 leukemia = tested on: RPMI-8226 leukemia
SK-MEL-5 melanoma = tested on: SK-MEL-5 melanoma
U251 CNS = tested on: U251 CNS
SW-620 colon = tested on: SW-620 colon
HCC-2998 colon = tested on: HCC-2998 colon
PC-3 prostate = tested on: PC-3 prostate

Structure (SMILES)	TGI (LOX IMVI melanoma) [µM]	TGI (OVCAR-4 ovarian) [µM]	TGI (HOP-92 NSCLC) [µM]	TGI (MALME-3M melanoma) [µM]	TGI (SNB-19 CNS) [µM]	TGI (UO-31 renal) [µM]	TGI (SN12C renal) [µM]	TGI (UACC-257 melanoma) [µM]	TGI (K-562 leukemia) [µM]	TGI (SF-268 CNS) [µM]	TGI (RPMI-8226 leukemia) [µM]	TGI (SK-MEL-5 melanoma) [µM]	TGI (U251 CNS) [µM]	TGI (SW-620 colon) [µM]	TGI (HCC-2998 colon) [µM]	TGI (PC-3 prostate) [µM]
C/C(=C(/C)c1cc[n+](C)cc1)c1cc[n+](C)cc1	> 75	> 75	> 75	> 75	> 75	> 75	> 75	> 75	> 75	> 75	> 75	> 75	> 75	–	–	–
O=[N+]([O-])c1cc(Cl)ccc1S(=O)(=O)c1ccc(Cl)cc1[N+](=O)[O-]	32.5	37.2	32.6	26.6	31.4	30.9	29.1	26.7	> 100	29.2	> 100	27.7	34.5	32.6	–	–
Cc1ccc2nc(-c3ccc(-c4nc5ccc(C)cc5o4)c(O)c3)oc2c1	> 100	–	> 100	–	> 100	> 100	> 100	–	> 100	> 100	> 100	> 100	> 100	> 100	> 100	> 100
CC(C)N(C(=O)C12C3(C(=O)C(C)(C)C)C4C5(C#N)C3C1(C(=O)C(C)(C)C)C5C42C(=O)C(C)(C)C)C(C)C (stereo not drawn)	> 100	> 100	> 100	–	> 100	> 100	> 100	> 100	> 100	> 100	–	> 100	> 100	> 100	> 100	> 100
Cc1ccc(S(=O)(=O)OI(O)CC(F)(F)F)cc1	> 100	> 100	> 100	–	–	> 100	> 100	> 100	> 100	> 100	> 100	> 100	> 100	> 100	> 100	> 100
O=c1[nH]cc(COCC(O)CO)c(=O)[nH]1 (stereo not drawn)	> 100	> 100	> 100	> 100	> 100	> 100	> 100	> 100	> 100	> 100	> 100	> 100	> 100	> 100	–	–
O=C(/C=C/c1ccc(O)cc1)c1cc(-c2cc(CCC(=O)c3ccc(O)cc3O)ccc2O)c(O)cc1O	> 50	> 50	> 50	> 50	> 50	> 50	> 50	> 50	48.4	> 50	> 50	> 50	> 50	> 50	–	> 50
O=C(/C=C/c1ccccc1Br)c1ccccc1	2.64	6.03	32.4	–	23.2	11.3	21.7	24.1	5.14	10.5	–	22.6	2.9	3.02	7.68	23.5
CC(=O)c1sc2n(C)c(=O)c3ccccc3[n+]2c1C	> 100	> 100	> 100	–	> 100	> 100	> 100	> 100	> 100	> 100	> 100	> 100	> 100	> 100	> 100	> 100
O=c1[nH]c2cc3[nH]c(=O)c(=O)[nH]c3cc2[nH]c1=O	> 100	–	–	> 100	> 100	> 100	> 100	> 100	> 100	> 100	> 100	> 100	> 100	> 100	> 100	> 100
COC(=O)C1Cc2c([nH]c3ccccc23)-c2[nH]c3ccccc3c2CC(NC(C)=O)C(=O)NCC(=O)NCC(=O)N1 (stereo not drawn)	> 100	–	> 100	> 100	> 100	> 100	> 100	> 100	> 100	> 100	> 100	> 100	> 100	> 100	–	> 100
C=CCN(N=O)C(=O)N(CCCCC(NC(C)=O)C(=O)NCc1ccccc1)Cc1ccccc1 (stereo not drawn)	55.3	> 100	57.3	58.9	> 100	91.7	> 100	> 100	> 100	> 100	41.9	30	> 100	> 100	–	–
COC(=O)C(CC(C)C)NC(=O)CNC(=O)C(Cc1ccc(OCc2ccccc2)cc1)NC(=O)C(COCc1ccccc1)NC(=O)OC(C)(C)C (stereo not drawn) (Boc-S(Bn)Y(Bn)GL-OMe; configuration not given here)	> 100	> 100	> 100	> 100	> 100	> 100	> 100	–	> 100	> 100	> 100	> 100	> 100	> 100	–	> 100
COc1ccc(-c2cc(=O)c3ccc(F)cc3[nH]2)cc1	> 100	> 100	> 100	> 100	> 100	> 100	> 100	> 100	> 100	> 100	> 100	> 100	–	> 100	> 100	–
CCN(CC)c1ccc2cc(-c3csc(C)n3)c(=O)oc2c1	> 100	> 100	92.7	–	> 100	> 100	> 100	> 100	> 100	> 100	> 100	> 100	> 100	> 100	> 100	> 100
O=C(NN1C(=O)C(Cl)C1c1cccc(Cl)c1)c1ccccc1O (stereo not drawn)	> 100	> 100	–	> 100	> 100	> 100	> 100	> 100	> 100	> 100	–	> 100	> 100	–	–	–
COc1ccc(OC2OC(CO)C(O)C(O)C2O)cc1 (stereo not drawn)	> 100	–	–	> 100	> 100	> 100	> 100	> 100	> 100	> 100	> 100	> 100	> 100	> 100	> 100	> 100
C=C(C)CCN(C(=O)OC(C)(C)C)c1cc(C(C)C)co1	96.7	> 100	61	–	> 100	> 100	> 100	> 100	> 100	55.7	57.3	> 100	> 100	> 100	> 100	99.6
O=C(CSc1nc2ccc(I)cc2c(=O)n1Cc1ccccc1)NN1C(=O)CSC1c1ccccc1 (stereo not drawn)	39.1	76.1	46.9	–	> 100	–	56.1	57.5	> 100	79.1	> 100	42.6	69.5	> 100	53.2	> 100
Cc1ccc(S(=O)(=O)NC(=O)NCC(N)=O)cc1	> 100	> 100	> 100	> 100	> 100	> 100	> 100	> 100	> 100	> 100	> 100	> 100	> 100	> 100	–	> 100
Oc1ccccc1-c1n[nH]c(-c2ccccc2O)n1	> 100	> 100	–	> 100	–	> 100	> 100	–	> 100	> 100	> 31.1	> 100	> 100	> 100	> 96.7	4.72
COc1ccc2oc(=O)c(-c3csc(-c4ccccc4)n3)cc2c1	> 100	97.9	56	–	45	47.1	–	> 100	> 100	71.2	> 100	> 100	52.4	> 100	> 100	> 100
O=C1COc2cc3c(cc2N1)SCCC(=O)N3	–	> 100	> 100	> 100	> 100	> 100	> 100	> 100	> 100	> 100	> 100	> 100	–	> 100	> 100	–
COC1=CC(=O)c2c(n[nH]c2CCNC(=O)OCc2ccccc2)C1=O	23.7	–	–	6.5	39.8	28.8	30.1	28.3	44.9	–	39.1	13	26	36.8	39.6	> 100
Cc1cc(C)nc(NS(=O)(=O)c2ccc(Nc3nnc(/C=C/c4c(O)ccc5ccccc45)c(=O)n3N)cc2)n1	–	85.2	> 100	92.7	> 100	86.3	73.2	–	> 100	> 100	> 100	–	–	> 100	–	–
